Measurements published in publication PMC6158189, “A pharmacological probe identifies cystathionine β-synthase as a new negative regulator for ferroptosis” (Cell Death & Disease, 2018).
Entries after “also recorded” stand apart in the source; their conditions may differ.

What was measured:
[1] = test system: HepG2 cells; assay: intracellular total glutathione (Cayman kit); assay type: cell-based, human; settings: 24 h
Protocol: Then, the cells from two wells were collected by cell scraper and washed once with PBS. The intracellular total glutathione (GSH) was measured with a commercial glutathione assay kit under the standard protocol (Cayman Chemical, Ann Arbor, USA). […] Supernatant was then collected after centrifugation at 12,000 × g for 15 min at 4 °C before the deproteination by adding an equal volume of 2.5 M metaphosphoric (MPA, Sigma). After the incubation for 5 min, the mixture was centrifuged at 3000 × g for 5 min. The supernatant was collected and added appropriate amount of 4 M triethanolamine (Sigma, 50 μl per 1 ml of the supernatant). The deproteinated and neutralized supernatant was used for the determination of the amount of total GSH by incubating with the assay reagents (from the kit) in a 96-well plate. After an incubation of 25 min, the absorbance at 405 nm was recorded and converted into the amount of GSH with a standard curve.

[2] = test system: HepG2 cells; assay: total Hcys in HepG2 cells (ELISA); assay type: cell-based, human; settings: 5 or 10 μM, 12 h
Protocol: Fig. 3 The effect of CH004 on the activity of endogenous hCBS in cells. a CH004 dose-dependently elevates the levels of Hcys in HepG2 and HEK293T cells. HepG2 cells or HEK293T cells were incubated with indicated CH004 or DMSO (control) for 12 h. The amount of total Hcys in cells was measured by ELISA using Axis® Homocysteine EIA kit (IBL, AX51301) (“Materials and Methods” section). […] HepG2 cells were treated with indicated DMSO, CH004 or HA for 8 h before the staining with AzMC probe. The amount of the H2S (blue) was quantified and is shown in (c). Bars, 50 μm. Control (CTR), DMSO group (100%). A representative fluorescence image from three independent experiments is shown. Means ± SDS (n = 3). d CH004 elevates Hcys in the peripheral blood of rats. The total Hcys of the blood samples collected from the anesthetized rats at the 75 min time point (Materials and Methods) were quantified by ELISA (see above). Means ± SDS (n = 6).
HepG2 or HEK293T cells were seeded in poly-D-Lys-coated 6-well plates at a density of ∼ 5 × 10^5 cells per well for one day, treated with DMSO or various concentrations of compounds for another 12 h before the collection by scraping or trypsinization. […]

[3] = test system: H22 mouse liver tumor cells in ICR mice; settings: 10 mg/kg/day i.v.
Protocol: Fig. 7 CH004 suppresses tumor growth in vivo. a–c CH004 reduces the growth rate of tumors in liver tumor xenograft mice model. Mice bearing liver tumor xenografts were treated with CH004 (10 mg/kg/d), cyclophophamide (CTX, 20 mg/kg/d) or PBS (Vehicle) for 21 days. The tumor volumes were measured every two days during day 6 to day 22 and the data was presented in a (n = 8). […] Mice body weight was measured along with the measurement of tumor volume (n = 8). Means ± SDS. Statistical analyses were performed on the raw data by one-way (c) or two-way ANOVA (a) with Bonferroni post-tests. The significance of the CH004-treated group compared to Vehicle was indicated with $ (a), whereas the comparison of the CTX group to Vehicle was with # (a). $, # or ***p < 0.001
The in vivo effect of CH004 on tumor growth was evaluated in a xenograft mice model of liver cancer. The experiment was independently performed by Jiangsu KeyGEN BioTECH Co. LTD (Jiangsu, China) and followed the standard procedures that were established and approved by the local Animal Care and Use Committee. Briefly, H22 mouse liver tumor cells were intraperitoneal injected into female ICR mice (SLAC Laboratory Animal Co. Ltd, Shanghai, China). 8 days later, mice with distended abdomen were killed, and the ascites was collected, washed and resuspended with PBS. 0.1 ml cell suspension with a density of 1 × 10^7/ml was subcutaneously injected into the right dorsum of ICR female mice (~20 g). The mice bearing H22 tumor cells were then randomized into groups (n = 8) on the following day after the implantation. Then, the mice were injected via a tail vein (i.v.) with PBS, CH004 (10 mg/kg) or cyclophosphamide (CTX, a known anticancer drug; 20 mg/kg) once per day and for 21 days. Tumor sizes were measured every 2 days starting from the day 6 using a caliper, and tumor volume was calculated using the formula V = length × width^2 × π / 6. The body weights of mice were recorded under the same conditions. The mice were sacrificed on day 22, and the tumors were taken out and weighted.

With Cn1nc(Cc2ccccc2)nc2c(=O)n(C)c(=O)nc1-2 [CH004, 3-benzyl-1,6-dimethylpyrimido[5,4-e][1,2,4]triazine-5,7(1H,6H)-dione] the “intracellular pool of glutathione (GSH)” value [1] was “dose-dependently deplete”, the “increase of Hcys” value [2] was ~ 2 fold and the “reduction of tumor volume or weight” value ([3]; 21-day treatment) was “more than half”. For the same compound, the “effect on total body weight” value ([3]; 21 days) was “did not substantially affect; also recorded: hardly affects” and the “growth rate of tumor” value ([3]; since day 12 of treatment, p < 0.001) was “significantly reduced”.
